In one data set the test system is rats. In words: active avoidance test, memory retention (paw pressure withdrawal) in rats. The class given is in vivo, rat. To be noted: for minimal effective dose: Rattus norvegicus, sc, 24 h, read-out: Active dose (minimum dose which reduces the stimulus to below 11 graduations). An excerpt:
(A) The action on mnemic processes is first shown by the ability of the compounds to improve a type of memory retention in rats. The principle of the active avoidance test (see M. GREINDL and S. PREAT, Arch. Int. Pharmacodyn. Therap. 223,(1976),(1),168-171) developed in our laboratories and used for this purpose may be described as follows: the reaction of withdrawal of a rat's paw when subjected to an increasing and measured pressure is observed. The pressure at which the withdrawal reaction takes place is called the reaction threshold. This threshold is expressed by the number of graduations of the scale of the apparatus used (Analgesy meter UGO BASILE - Milano) and thus corresponds to the minimum pressure which brings about withdrawal when applied to the animal's paw. It is read directly from the scale of the apparatus used.
Inversely, animals treated with a substance having a positive effect on the mnemic processes (for example, piracetam) show a significant degree of retention: the stimulus at which the rats react by a reflex of avoidance is statistically lower than that of the control animals. A minimum of 20 rats are used per test (10 treated rats and 10 control rats) and the active dose is defined as the minimum dose which reduces the stimulus to below 11 graduations.
Subcutaneous administration of compounds of general formula (I), namely compounds A, G, H, I, J, K, L, N, O, P, Q, R, V, W, give, under these conditions, the effects indicated in Table I below.

For data set [1], the system named is rat. In words: reduction of the spinal fixation time in rats. The class given is in vivo. The settings on record: intraperitoneal, spinal section after 35 minutes. From the text: (B) The action on mnemic processes is also shown by the reduction of the spinal fixation time, a test which has been described in literature (see C. GIURGEA & F. MOURAVIEFF-LESUISSE, Arch. Int. Pharmacodyn. 191/2,(1971),279) as an elementary memory model and which provides pharmacological reactivity in good correlation with clinical physiopathology. In the rat, after unilateral section of the cerebellum, there is a postural asymmetry of the hind paws. This asymmetry may persist, even after spinal section, if the animal has passed a sufficient period of time in this position. This time, which is called the spinal fixation time, is 45 minutes under the experimental conditions applied here.
On the other hand, if spinal section is performed before the expiry of this period of time, for example 35 minutes after the onset of the asymmetry, the latter disappears.
No animal treated with placebos retains the asymmetry under these conditions.
Inversely, any product which allows the rats to retain the asymmetry (thus effecting spinal fixation) when the spinal section is performed after 35 minutes, is considered to be active.
Intraperitoneal administration of compound A gives rise to the effects described in Table II. By "number of animals" is to be understood the number of animals which responded positively to the test, in relation to the number of animals tested at the indicated dose: […]

In another data set the test system is mice. In words: protection against aggressions of the hypoxic type (lethality induced by oxydipentonium chloride) in mice. The class given is in vivo. The settings on record: 1 h, mouse, intraperitoneal, one hour before curarizer, read-out: Proportion of survivors, treated animals. Here is the method: Protection against aggressions of the hypoxic type is shown by a reduction of the lethality induced by a curarizer, the duration of action of which is short, namely oxydipentonium chloride (Brevatonal). At the doses used, this curarizer brings about a respiratory depression which, in turn, brings about a hypoxi-hypercapnic syndrome. A compound capable of protecting the brain during this brief period of hypoxia ensures survival. The compounds are administered to groups of 10 mice one hour before the injection of the curarizer; in a parallel test, a control group of 10 mice are given physiological salt solution before the curarizer. This test has also been developed in our laboratories (see, for the principle of this test, S. LEVIS et al.; Arch. Int. Pharmacodyn. Therap, 93,(1953),1,46-54).
Intraperitoneal administration of compounds of general formula (I), namely, products A, B, F, G, H, I, J, K, L, gives the results shown in Table III: […]

The nature of a further data set: toxicity, LD50 in rat. The settings on record: in vivo, intravenous. An excerpt:
The tested compounds have a remarkably low toxicity. Table V gives the toxicities, after intravenous administration, of some of the compounds of the present invention: […]

For data set [2], the system named is rat. The settings on record: 30 mg/kg (0.2 mM/kg), Giurgea et al., loc.cit.; cited from earlier work.

As usually defined, the LD50 is the dose at which mortality reaches 50%.

Several values for one entry are separate records, joined by “and”; a condition that tells them apart may be missing. Identical values can stand only once. Like-named read-outs stand apart in the source and are kept apart here. Where only a bound is given, the exact number is not on record here.

`NC(=O)CNC(=O)CN1CCCC1=O` [A, 2-(2-Oxo-1-pyrrolidineacetamido)-acetamide]: the minimal effective dose in the data set on rats is 0.4 mg/kg and 2 µmol/kg. The “activity compared with piracetam in the active avoidance test” value in the data set with rats (rat, subcutaneous) is on record as “superior to that of piracetam”. For the same compound, the “Number of animals which responded positively / number tested” value in the data set on rat [1] (6.4 mg/kg (0.032 mM/kg)) was 3/7; in the data set with rat [1] (20.0 mg/kg (0.1 mM/kg)) it was 4/5. Besides, the responders at 320 µM, 320 µmol/kg with mice (0.32 mM/kg (A 64, I 95, J 68, Piracetam 45 mg/kg), control 1/10, Piracetam 0/10) came out at 70%. For the same compound, in “toxicity, LD50 in rat”, the LD50 was > 5000 µmol/kg and > 1000 mg/kg.
In the case of `NC(=O)CN1CCCC1=O` [Piracetam, 2-oxo-1-pyrrolidineacetamide, reference compound], the minimal effective dose in the data set with rats was 3.5 mg/kg and 25 µmol/kg. In addition, the responders at 320 µM, 45 mg/kg in the data set with mice (ip, 0.32 mM/kg (A 64, I 95, J 68, Piracetam 45 mg/kg), control 1/10, Piracetam 0/10) is 10%. In the data set on mice (ip, 1.0 mM/kg (Piracetam 142 mg/kg), control 2/10), the responders at 1000 µM, 142 mg/kg stood at 40%. In addition, the responders at 3200 µM, 454 mg/kg with mice (ip, 3.2 mM/kg (Piracetam 454 mg/kg), control 1/10) came to 80%. Besides, the “Number of animals which responded positively / number tested” value in the data set with rat [2] is reported as 4/9.

The values are drawn from patent US4162325A, “N-substituted lactams” (UCB, Societe Anonyme, priority 1976, dated 1979).
